{"source": "patent US20180093104A1", "about": "“LIGHT IRRADIATION METHOD, LIGHT IRRADIATION DEVICE, LIGHT IRRADIATION SYSTEM, DEVICE SYSTEM FOR PHOTODYNAMIC DIAGNOSIS OR PHOTODYNAMIC THERAPY, SYSTEM FOR SPECIFYING TUMOR SITE AND SYSTEM FOR TREATING TUMOR” (SONY CORPORATION, priority 2015, published 2018)", "tested_on": "MCF7 (Human breast adenocarcinoma-derived cell line)", "test": "In vitro PDT experiment: calcein fluorescence viability observation after 405 nm pulse laser irradiation", "assay_type": "cell-based", "experimental": "In vitro experiments of PDT were performed by using the following materials. Target cells: MCF7 (Human breast adenocarcinoma-derived cell line) Dish: φ35 mm glass bottom dish (non-coated) Culture medium: D-MEM-10% FBS-1% P/S-1 mM pyruvate sodium Photosensitizer: 10 μg/ml talaporfin Viability assay fluorescence reagent: 10 μg/ml calcein Firstly, dishes A and B in which MCF7 had been cultured in the culture medium described above were prepared. Into the dish A, talaporfin was not added, and the dish A was used as a control. Into the dish B, talaporfin at 10 μg/ml was added. […] After the irradiation, incubation was performed further for 18 hours, the cultured cells in each dish were washed twice with phosphate-buffered saline (PBS), substitution with 1 ml of calcein at 10 μg/ml was performed, and the cultured cells in each dish were observed.", "data": [{"smiles": "C=Cc1c(C)c2cc3nc(c(CC(=O)N[C@@H](CC(=O)O)C(=O)O)c4[nH]c(cc5nc(cc1[nH]2)C(C)=C5CC)c(C)c4C(=O)O)[C@@H](CCC(=O)O)[C@@H]3C", "note": "[talaporfin]", "values": [{"measurement": "killing of cultured cells (calcein fluorescent image, FIG. 8 vs FIG. 7)", "setting": "Experiment 1: 10 μg/ml talaporfin, 24 hours incubation, pulse laser 405 nm, 120 fs, 1 mW for 30 minutes, observed 18 hours after irradiation, compared with dish A without talaporfin", "result": "significantly killed"}, {"measurement": "killing of cultured cells in parts of the dish where irradiation had not been performed", "setting": "Experiment 2: 10 μg/ml talaporfin, 24 hours incubation, non-irradiated parts of dish B", "result": "not able to be confirmed"}, {"measurement": "killing of cultured cells (calcein fluorescent image, FIG. 10 vs FIG. 9)", "setting": "Experiment 2: 10 μg/ml talaporfin, 24 hours incubation, pulse laser 405 nm for 10 minutes, compared with dish A without talaporfin", "result": "significantly killed"}, {"measurement": "killing of cultured cells (calcein fluorescent image, FIG. 12)", "setting": "Experiment 3: 10 μg/ml talaporfin, 24 hours incubation, not irradiated with a pulse laser", "result": "not killed"}, {"measurement": "killing of cultured cells (calcein fluorescent image, FIG. 14)", "setting": "Experiment 4: 10 μg/ml talaporfin, 1.5 hours incubation, pulse laser 405 nm for 10 minutes", "result": "the cells were alive"}]}]}
